We go through one molecule from US11814366B2, “Antiviral compounds and use thereof” (UNIVERSITA DEGLI STUDI DI SIENA, priority 2018, dated 2023).

The subject of data set [1] is HSV-2. Nature of the data set: Pretreatment assay, Vero cells treated before HSV-2. Format: cell-based, Herpes 2 virus (HSV-2). Conditions: Vero cells pretreated 2 h at 37° C., then HSV-2. As to the method: Vero Cells were pretreated for 2 h at 37° C. with increasing concentrations of compound 15b in DMSO the inocula were then removed cells washed and HSV-2 was added on cells for 2 h at 37° C. Subsequently the same protocol described above for the evaluation of HSV inhibition was followed.

For data set [2], the system named is HSV2. Kind of data set: Virucidal assay. Format: cell-based, Herpes 2 virus (HSV-2). Conditions: 10 μM, 2 h at 37° C., titrated at dilutions where compound no more active. The protocol: Approximately 10^5 PFU of HSV2 plus 10 μM of 15b in DMSO were added to MEM and mixed in a total volume of 100 μl. The virus-compound mixtures were incubated for 2 h at 37° C. then diluted serially to the non-inhibitory concentration of test compound; the residual viral infectivity was determined by viral plaque assay (FIG. 2).

The nature of data set [3]: in vitro. Conditions: African green monkey.

On to `O=C1NC(=S)N(CCc2ccccc2)C(=O)/C1=C\c1ccc(-c2ccc(C(=O)O)c(O)c2)[nH]1` [Compound 15b, (Z)-4-(5-((4,6-dioxo-1-phenethyl-2-thioxotetrahydropyrimidin-5(2H)-ylidene)methyl)-1H-pyrrol-2-yl)-2-hydroxybenzoic Acid], for which the “antiviral activity in pre-treatment assay” value in data set [1] is “inactive”. In addition, the “residual viral infectivity after virucidal incubation” value in data set [2] was “never regained”. The CC50 in data set [3] (CC50, conditions of the HSV-1 assay) is over 300 µM; in data set [3] (CC50, conditions of the HSV-2 Acy R assay), over 300 µM; in data set [3] (CC50, conditions of the HSV-2 assay (Table 2)), over 300 µM; in data set [3] (CC50, conditions of the ZIKAV assay (Table 3)), over 111 µM.
